{
  "source": "the kinase profiling compilation of Christmann-Franck et al. (2016)",
  "experiment_in_all_cases": "KINOMEscan competition binding",
  "details_in_all_cases": "compound 10.0 µM",
  "key": {"NUAK2 (human)": {"biological_target": "NUAK2 (human) (UniProt Q9H093)"}, "MAP3K5 (human)": {"biological_target": "MAP3K5 (human) (UniProt Q99683)"}, "IRAK1 (human)": {"biological_target": "IRAK1 (human) (UniProt P51617)"}, "DAPK1 (human)": {"biological_target": "DAPK1 (human) (UniProt P53355)"}, "LRRK2 (human)": {"biological_target": "LRRK2 (human) (UniProt Q5S007)"}, "RPS6KB1 (human)": {"biological_target": "RPS6KB1 (human) (UniProt P23443)"}, "MAPK15 (human)": {"biological_target": "MAPK15 (human) (UniProt Q8TD08)"}, "CDK7 (human)": {"biological_target": "CDK7 (human) (UniProt P50613)"}, "EIF2AK1 (human)": {"biological_target": "EIF2AK1 (human) (UniProt Q9BQI3)", "sequence (Q9BQI3 whole entry, looked up)": "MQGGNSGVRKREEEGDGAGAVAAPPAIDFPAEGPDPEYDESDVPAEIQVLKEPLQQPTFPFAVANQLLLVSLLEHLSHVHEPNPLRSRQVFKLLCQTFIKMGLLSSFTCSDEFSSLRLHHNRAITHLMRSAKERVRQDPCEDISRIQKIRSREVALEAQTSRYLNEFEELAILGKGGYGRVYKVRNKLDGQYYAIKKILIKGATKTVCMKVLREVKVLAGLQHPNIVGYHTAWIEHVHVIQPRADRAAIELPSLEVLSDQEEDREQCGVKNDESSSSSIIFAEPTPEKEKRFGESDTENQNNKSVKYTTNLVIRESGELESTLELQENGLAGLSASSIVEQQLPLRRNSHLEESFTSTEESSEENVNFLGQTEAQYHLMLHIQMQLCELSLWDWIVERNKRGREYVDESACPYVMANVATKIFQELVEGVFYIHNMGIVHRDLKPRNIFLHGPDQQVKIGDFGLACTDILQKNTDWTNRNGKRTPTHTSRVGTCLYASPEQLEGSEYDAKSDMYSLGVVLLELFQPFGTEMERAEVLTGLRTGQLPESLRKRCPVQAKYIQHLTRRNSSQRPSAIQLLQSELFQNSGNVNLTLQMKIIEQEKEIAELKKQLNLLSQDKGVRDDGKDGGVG"}, "PRKD2 (human)": {"biological_target": "PRKD2 (human) (UniProt Q9BZL6)"}, "IGF1R (human)": {"biological_target": "IGF1R (human) (UniProt P08069)"}, "TGFBR2 (human)": {"biological_target": "TGFBR2 (human) (UniProt P37173)", "sequence (P37173 whole entry, looked up)": "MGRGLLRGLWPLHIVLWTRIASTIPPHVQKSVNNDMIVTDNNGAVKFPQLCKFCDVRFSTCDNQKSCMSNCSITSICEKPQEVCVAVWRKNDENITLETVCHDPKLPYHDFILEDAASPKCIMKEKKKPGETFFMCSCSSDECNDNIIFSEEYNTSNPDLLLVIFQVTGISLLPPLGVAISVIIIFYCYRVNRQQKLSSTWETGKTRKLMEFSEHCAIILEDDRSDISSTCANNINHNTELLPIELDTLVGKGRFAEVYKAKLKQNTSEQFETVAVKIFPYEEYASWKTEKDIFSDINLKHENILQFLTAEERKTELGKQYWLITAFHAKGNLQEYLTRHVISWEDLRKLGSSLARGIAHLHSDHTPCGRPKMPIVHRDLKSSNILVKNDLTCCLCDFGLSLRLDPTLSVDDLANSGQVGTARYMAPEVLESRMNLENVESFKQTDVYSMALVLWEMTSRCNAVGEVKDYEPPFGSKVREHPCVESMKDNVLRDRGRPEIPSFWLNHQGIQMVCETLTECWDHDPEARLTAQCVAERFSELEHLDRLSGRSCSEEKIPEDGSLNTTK"}, "CDKL1 (human)": {"biological_target": "CDKL1 (human) (UniProt Q00532)"}, "CLK3 (human)": {"biological_target": "CLK3 (human) (UniProt P49761)", "sequence (P49761 whole entry, looked up)": "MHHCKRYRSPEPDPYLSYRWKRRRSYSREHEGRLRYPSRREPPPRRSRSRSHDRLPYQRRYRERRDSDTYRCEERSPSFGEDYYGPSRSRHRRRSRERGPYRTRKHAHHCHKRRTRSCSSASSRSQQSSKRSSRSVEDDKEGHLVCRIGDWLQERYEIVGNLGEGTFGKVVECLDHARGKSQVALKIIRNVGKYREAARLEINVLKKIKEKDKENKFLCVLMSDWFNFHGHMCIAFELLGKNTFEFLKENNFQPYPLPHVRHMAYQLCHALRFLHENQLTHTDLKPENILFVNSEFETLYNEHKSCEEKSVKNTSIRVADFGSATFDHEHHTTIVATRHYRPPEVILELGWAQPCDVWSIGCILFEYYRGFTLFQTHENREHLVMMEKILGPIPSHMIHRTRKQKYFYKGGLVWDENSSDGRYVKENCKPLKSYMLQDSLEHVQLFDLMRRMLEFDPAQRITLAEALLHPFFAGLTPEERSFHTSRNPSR"}, "HIPK2 (human)": {"biological_target": "HIPK2 (human) (UniProt Q9H2X6)"}, "MAP2K6 (human)": {"biological_target": "MAP2K6 (human) (UniProt P52564)", "sequence (P52564 whole entry, looked up)": "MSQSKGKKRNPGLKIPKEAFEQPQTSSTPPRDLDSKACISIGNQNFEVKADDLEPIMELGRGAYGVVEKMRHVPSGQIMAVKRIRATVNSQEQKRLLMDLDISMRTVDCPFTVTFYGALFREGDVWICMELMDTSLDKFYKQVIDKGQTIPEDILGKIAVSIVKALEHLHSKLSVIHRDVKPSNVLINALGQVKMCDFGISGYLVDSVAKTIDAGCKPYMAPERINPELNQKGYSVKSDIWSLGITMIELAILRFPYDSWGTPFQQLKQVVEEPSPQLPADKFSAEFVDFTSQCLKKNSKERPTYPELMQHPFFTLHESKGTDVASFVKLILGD"}, "RPS6KA1 KD2 (human)": {"biological_target": "RPS6KA1 KD2 (human) (UniProt Q15418)"}, "EPHA6 (human)": {"biological_target": "EPHA6 (human) (UniProt Q9UF33)"}, "MAPK12 (human)": {"biological_target": "MAPK12 (human) (UniProt P53778)", "sequence (P53778 whole entry, looked up)": "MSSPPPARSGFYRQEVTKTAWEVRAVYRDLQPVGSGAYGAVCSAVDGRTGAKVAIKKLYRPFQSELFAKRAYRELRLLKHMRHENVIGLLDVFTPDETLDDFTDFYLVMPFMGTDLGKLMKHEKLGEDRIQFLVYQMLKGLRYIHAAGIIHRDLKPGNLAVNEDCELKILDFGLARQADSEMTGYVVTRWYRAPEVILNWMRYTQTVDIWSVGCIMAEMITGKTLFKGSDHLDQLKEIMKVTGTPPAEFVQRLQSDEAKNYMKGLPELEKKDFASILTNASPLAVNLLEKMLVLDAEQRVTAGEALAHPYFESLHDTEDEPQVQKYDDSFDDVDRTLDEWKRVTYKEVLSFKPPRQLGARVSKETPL"}, "CDK2 (human)": {"biological_target": "CDK2 (human) (UniProt P24941)"}, "ANKK1 (human)": {"biological_target": "ANKK1 (human) (UniProt Q8NFD2)"}, "STK17B (human)": {"biological_target": "STK17B (human) (UniProt O94768)", "sequence (O94768 whole entry, looked up)": "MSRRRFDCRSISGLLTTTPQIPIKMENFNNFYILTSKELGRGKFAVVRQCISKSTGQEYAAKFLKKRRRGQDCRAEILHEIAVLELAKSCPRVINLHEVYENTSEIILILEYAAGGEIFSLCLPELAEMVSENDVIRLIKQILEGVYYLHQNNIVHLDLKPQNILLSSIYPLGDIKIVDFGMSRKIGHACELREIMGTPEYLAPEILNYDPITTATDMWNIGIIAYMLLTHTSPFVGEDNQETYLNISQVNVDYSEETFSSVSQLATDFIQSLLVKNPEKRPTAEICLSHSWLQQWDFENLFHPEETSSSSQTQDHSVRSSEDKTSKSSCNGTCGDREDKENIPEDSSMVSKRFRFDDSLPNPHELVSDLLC"}, "PDPK1 (human)": {"biological_target": "PDPK1 (human) (UniProt O15530)"}, "CDK13 (human)": {"biological_target": "CDK13 (human) (UniProt Q14004)"}, "PRKG1 (human)": {"biological_target": "PRKG1 (human) (UniProt Q13976)"}, "ICK (human)": {"biological_target": "ICK (human) (UniProt Q9UPZ9)"}, "CDK14 (human)": {"biological_target": "CDK14 (human) (UniProt O94921)"}, "TNK2 (human)": {"biological_target": "TNK2 (human) (UniProt Q07912)", "sequence (Q07912 whole entry, looked up)": "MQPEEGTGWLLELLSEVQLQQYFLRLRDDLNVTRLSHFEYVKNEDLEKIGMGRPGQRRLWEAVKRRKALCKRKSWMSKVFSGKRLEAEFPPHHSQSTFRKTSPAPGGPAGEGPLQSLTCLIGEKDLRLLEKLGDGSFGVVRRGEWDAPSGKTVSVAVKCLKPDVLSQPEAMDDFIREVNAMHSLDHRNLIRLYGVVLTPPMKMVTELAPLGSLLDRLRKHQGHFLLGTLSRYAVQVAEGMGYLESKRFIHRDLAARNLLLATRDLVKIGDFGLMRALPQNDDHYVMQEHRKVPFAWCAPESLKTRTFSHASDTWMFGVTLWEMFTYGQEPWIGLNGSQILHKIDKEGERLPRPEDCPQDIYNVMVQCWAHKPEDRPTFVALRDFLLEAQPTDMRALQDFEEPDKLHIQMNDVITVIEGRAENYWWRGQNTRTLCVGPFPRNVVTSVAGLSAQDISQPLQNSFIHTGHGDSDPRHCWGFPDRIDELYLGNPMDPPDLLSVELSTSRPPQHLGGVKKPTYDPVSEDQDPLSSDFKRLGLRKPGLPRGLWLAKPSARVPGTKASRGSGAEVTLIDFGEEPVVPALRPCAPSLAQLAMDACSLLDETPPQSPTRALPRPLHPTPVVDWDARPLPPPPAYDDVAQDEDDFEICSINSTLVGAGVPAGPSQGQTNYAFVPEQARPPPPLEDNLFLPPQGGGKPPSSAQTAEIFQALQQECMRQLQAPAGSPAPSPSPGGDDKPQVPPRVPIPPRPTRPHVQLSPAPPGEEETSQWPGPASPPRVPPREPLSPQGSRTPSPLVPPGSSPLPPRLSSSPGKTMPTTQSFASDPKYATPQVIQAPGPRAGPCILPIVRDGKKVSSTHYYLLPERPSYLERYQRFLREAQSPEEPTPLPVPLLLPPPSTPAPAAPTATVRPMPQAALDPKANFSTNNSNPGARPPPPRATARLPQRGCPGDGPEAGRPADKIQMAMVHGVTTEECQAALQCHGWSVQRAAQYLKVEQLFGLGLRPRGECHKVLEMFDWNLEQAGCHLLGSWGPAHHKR"}, "MAP4K1 (human)": {"biological_target": "MAP4K1 (human) (UniProt Q92918)", "sequence (Q92918 whole entry, looked up)": "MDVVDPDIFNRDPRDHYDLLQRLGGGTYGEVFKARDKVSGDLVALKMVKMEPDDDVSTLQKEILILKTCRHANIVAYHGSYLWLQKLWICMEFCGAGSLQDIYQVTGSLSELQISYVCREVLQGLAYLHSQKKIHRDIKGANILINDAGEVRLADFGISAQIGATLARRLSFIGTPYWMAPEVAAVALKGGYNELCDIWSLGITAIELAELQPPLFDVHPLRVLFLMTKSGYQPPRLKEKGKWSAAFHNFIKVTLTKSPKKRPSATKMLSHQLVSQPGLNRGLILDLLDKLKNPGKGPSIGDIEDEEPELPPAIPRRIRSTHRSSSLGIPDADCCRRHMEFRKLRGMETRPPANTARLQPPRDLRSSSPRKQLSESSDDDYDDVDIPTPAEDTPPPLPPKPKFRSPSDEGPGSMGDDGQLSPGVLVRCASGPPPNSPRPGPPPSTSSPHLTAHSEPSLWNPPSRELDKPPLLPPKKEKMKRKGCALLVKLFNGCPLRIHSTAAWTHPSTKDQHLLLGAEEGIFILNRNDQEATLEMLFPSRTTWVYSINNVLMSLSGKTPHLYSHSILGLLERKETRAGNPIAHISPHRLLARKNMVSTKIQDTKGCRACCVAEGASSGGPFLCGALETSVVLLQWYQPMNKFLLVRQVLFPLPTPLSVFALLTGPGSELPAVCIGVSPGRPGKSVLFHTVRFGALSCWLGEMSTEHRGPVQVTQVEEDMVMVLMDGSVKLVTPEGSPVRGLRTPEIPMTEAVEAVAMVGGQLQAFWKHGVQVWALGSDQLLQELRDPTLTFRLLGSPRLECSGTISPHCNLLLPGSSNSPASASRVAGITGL"}, "AKT3 (human)": {"biological_target": "AKT3 (human) (UniProt Q9Y243)"}, "NTRK2 (human)": {"biological_target": "NTRK2 (human) (UniProt Q16620)"}, "[1]": {"biological_target": "TYK2 JH2 pseudokinase (human) (UniProt P29597)"}, "CAMK2A (human)": {"biological_target": "CAMK2A (human) (UniProt Q9UQM7)"}, "PIK3C2G (human)": {"biological_target": "PIK3C2G (human) (UniProt O75747)"}, "STK35 (human)": {"biological_target": "STK35 (human) (UniProt Q8TDR2)"}, "RIPK4 (human)": {"biological_target": "RIPK4 (human) (UniProt P57078)"}, "DAPK2 (human)": {"biological_target": "DAPK2 (human) (UniProt Q9UIK4)", "sequence (Q9UIK4 whole entry, looked up)": "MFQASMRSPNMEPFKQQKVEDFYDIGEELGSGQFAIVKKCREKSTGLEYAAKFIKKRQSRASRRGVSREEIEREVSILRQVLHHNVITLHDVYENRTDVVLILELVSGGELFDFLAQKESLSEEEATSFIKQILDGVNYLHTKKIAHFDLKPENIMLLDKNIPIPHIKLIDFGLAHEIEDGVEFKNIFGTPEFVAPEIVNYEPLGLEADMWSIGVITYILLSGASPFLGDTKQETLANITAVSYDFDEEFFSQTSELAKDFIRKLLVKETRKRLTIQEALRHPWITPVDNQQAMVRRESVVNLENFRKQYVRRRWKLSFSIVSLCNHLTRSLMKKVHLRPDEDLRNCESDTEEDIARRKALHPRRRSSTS"}, "RPS6KA4 KD1 (human)": {"biological_target": "RPS6KA4 KD1 (human) (UniProt O75676)"}, "TGFBR1 (human)": {"biological_target": "TGFBR1 (human) (UniProt P36897)"}, "LATS2 (human)": {"biological_target": "LATS2 (human) (UniProt Q9NRM7)"}},
  "data": [
    {"compound": "Cc1ccc(NC(=O)c2cccc(C(C)(C)C#N)c2)cc1Nc1ccc2ncn(C)c(=O)c2c1", "values": [
      {"measurement": "kinase still bound, per cent of control", "setting": "NUAK2 (human)", "result": 100, "unit": "%"},
      {"measurement": "kinase still bound, per cent of control", "setting": "MAP3K5 (human)", "result": 100, "unit": "%"},
      {"measurement": "kinase still bound, per cent of control", "setting": "IRAK1 (human)", "result": 75, "unit": "%"},
      {"measurement": "kinase still bound, per cent of control", "setting": "DAPK1 (human)", "result": 100, "unit": "%"},
      {"measurement": "kinase still bound, per cent of control", "setting": "LRRK2 (human)", "result": 32, "unit": "%"},
      {"measurement": "kinase still bound, per cent of control", "setting": "RPS6KB1 (human)", "result": 100, "unit": "%"},
      {"measurement": "kinase still bound, per cent of control", "setting": "MAPK15 (human)", "result": 100, "unit": "%"},
      {"measurement": "kinase still bound, per cent of control", "setting": "CDK7 (human)", "result": 100, "unit": "%"},
      {"measurement": "kinase still bound, per cent of control", "setting": "EIF2AK1 (human)", "result": 84, "unit": "%"},
      {"measurement": "kinase still bound, per cent of control", "setting": "PRKD2 (human)", "result": 99, "unit": "%"},
      {"measurement": "kinase still bound, per cent of control", "setting": "IGF1R (human)", "result": 95, "unit": "%"},
      {"measurement": "kinase still bound, per cent of control", "setting": "TGFBR2 (human)", "result": 94, "unit": "%"},
      {"measurement": "kinase still bound, per cent of control", "setting": "CDKL1 (human)", "result": 100, "unit": "%"},
      {"measurement": "kinase still bound, per cent of control", "setting": "CLK3 (human)", "result": 100, "unit": "%"},
      {"measurement": "kinase still bound, per cent of control", "setting": "HIPK2 (human)", "result": 73, "unit": "%"},
      {"measurement": "kinase still bound, per cent of control", "setting": "MAP2K6 (human)", "result": 100, "unit": "%"},
      {"measurement": "kinase still bound, per cent of control", "setting": "RPS6KA1 KD2 (human)", "result": 87, "unit": "%"},
      {"measurement": "kinase still bound, per cent of control", "setting": "EPHA6 (human)", "result": 0, "unit": "%"},
      {"measurement": "kinase still bound, per cent of control", "setting": "MAPK12 (human)", "result": 45, "unit": "%"},
      {"measurement": "kinase still bound, per cent of control", "setting": "CDK2 (human)", "result": 100, "unit": "%"},
      {"measurement": "kinase still bound, per cent of control", "setting": "ANKK1 (human)", "result": 100, "unit": "%"},
      {"measurement": "kinase still bound, per cent of control", "setting": "STK17B (human)", "result": 100, "unit": "%"},
      {"measurement": "kinase still bound, per cent of control", "setting": "PDPK1 (human)", "result": 100, "unit": "%"},
      {"measurement": "kinase still bound, per cent of control", "setting": "CDK13 (human)", "result": 100, "unit": "%"},
      {"measurement": "kinase still bound, per cent of control", "setting": "PRKG1 (human)", "result": 100, "unit": "%"},
      {"measurement": "kinase still bound, per cent of control", "setting": "ICK (human)", "result": 100, "unit": "%"},
      {"measurement": "kinase still bound, per cent of control", "setting": "CDK14 (human)", "result": 100, "unit": "%"},
      {"measurement": "kinase still bound, per cent of control", "setting": "TNK2 (human)", "result": 100, "unit": "%"},
      {"measurement": "kinase still bound, per cent of control", "setting": "MAP4K1 (human)", "result": 63, "unit": "%"},
      {"measurement": "kinase still bound, per cent of control", "setting": "AKT3 (human)", "result": 100, "unit": "%"},
      {"measurement": "kinase still bound, per cent of control", "setting": "NTRK2 (human)", "result": 77, "unit": "%"},
      {"measurement": "kinase still bound, per cent of control", "setting": "[1]", "result": 100, "unit": "%"},
      {"measurement": "kinase still bound, per cent of control", "setting": "CAMK2A (human)", "result": 100, "unit": "%"},
      {"measurement": "kinase still bound, per cent of control", "setting": "PIK3C2G (human)", "result": 88, "unit": "%"},
      {"measurement": "kinase still bound, per cent of control", "setting": "STK35 (human)", "result": 75, "unit": "%"},
      {"measurement": "kinase still bound, per cent of control", "setting": "RIPK4 (human)", "result": 98, "unit": "%"},
      {"measurement": "kinase still bound, per cent of control", "setting": "DAPK2 (human)", "result": 100, "unit": "%"},
      {"measurement": "kinase still bound, per cent of control", "setting": "RPS6KA4 KD1 (human)", "result": 100, "unit": "%"},
      {"measurement": "kinase still bound, per cent of control", "setting": "TGFBR1 (human)", "result": 100, "unit": "%"},
      {"measurement": "kinase still bound, per cent of control", "setting": "LATS2 (human)", "result": 99, "unit": "%"}
    ]}
  ]
}
